Data: the supplement of paper PMC7661543
± gives the standard deviation of the averaged measurements.

Columns and labels:
Assay in all cases: relative cell number vs DMSO control (72 h) (% of DMSO); higher = less growth inhibition (more cells)
Conditions in all cases: sgRNA knockout: sgNT
BT-20 = tested on: BT-20
Procedure: (§1)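 QMAP-Seq: a pool of 5 breast cancer cell lines (ZR-75-1, SKBR3, HCC-38, MDA-MB-231, BT-20), each carrying 12 doxycycline-inducible Cas9 sgRNA perturbations (11 knockouts plus non-targeting sgNT), was treated with compounds for 72 h at four 10-fold doses (10 nM-10 uM or 1 nM-1 uM range). Barcodes were amplified and sequenced, and cell number was interpolated from 293T spike-in standard curves. The result is expressed as % of the median of DMSO wells. Two biological replicates.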

HCC-38 = tested on: HCC-38
Procedure: as §1

MDA-MB-231 = tested on: MDA-MB-231
Procedure: as §1

SKBR3 = tested on: SKBR3
Procedure: as §1

ZR-75-1 = tested on: ZR-75-1
Procedure: as §1

SMILES | relative cell number (BT-20; 10 nM) | relative cell number (BT-20; 100 nM) | relative cell number (BT-20; 1000 nM) | relative cell number (BT-20; 10000 nM) | relative cell number (HCC-38; 10 nM) | relative cell number (HCC-38; 100 nM) | relative cell number (HCC-38; 1000 nM) | relative cell number (HCC-38; 10000 nM) | relative cell number (MDA-MB-231; 10 nM) | relative cell number (MDA-MB-231; 100 nM) | relative cell number (MDA-MB-231; 1000 nM) | relative cell number (MDA-MB-231; 10000 nM) | relative cell number (SKBR3; 10 nM) | relative cell number (SKBR3; 100 nM) | relative cell number (SKBR3; 1000 nM) | relative cell number (SKBR3; 10000 nM) | relative cell number (ZR-75-1; 10 nM) | relative cell number (ZR-75-1; 100 nM) | relative cell number (ZR-75-1; 1000 nM) | relative cell number (ZR-75-1; 10000 nM)
CN(C)c1cc(NC(=O)CNC(C)(C)C)c(O)c2c1C[C@H]1C[C@H]3[C@H](N(C)C)C(O)=C(C(N)=O)C(=O)[C@@]3(O)C(O)=C1C2=O [Tigecycline] | 104 ± 12 | 97.4 ± 4.4 | 112 ± 24 | 118 ± 3.6 | 87.5 ± 6.1 | 107 ± 30 | 88.8 ± 2.6 | 102 ± 6.5 | 117 ± 16 | 92.1 ± 21 | 123 ± 18 | 83 ± 9.6 | 92.5 ± 19 | 69.1 ± 4.5 | 104 ± 33 | 65.6 ± 5.3 | 91.5 ± 11 | 96.2 ± 29 | 123 ± 24 | 90.1 ± 21
O=C1NC(=O)[C@@H](c2cn3c4c(cccc24)CCC3)[C@@H]1c1c[nH]c2ccccc12 [Tivantinib] | 109 ± 24 | 83.6 ± 12 | 53 ± 6.2 | 26 ± 1.1 | 89.1 ± 20 | 84.9 ± 14 | 39.6 ± 4.2 | 25.8 ± 3.1 | 107 ± 20 | 97.1 ± 6.3 | 34.2 ± 18 | 22.9 ± 13 | 94.9 ± 2.9 | 71.06 ± 0.6 | 19.5 ± 5.7 | 6.47 ± 2 | 69.2 ± 29 | 70.4 ± 1.6 | 20.4 ± 6.4 | 16.6 ± 1.9
COc1cc2nccc(Oc3ccc(NC(=O)Nc4cc(C)on4)c(Cl)c3)c2cc1OC [Tivozanib] | 87.3 ± 13 | 75.4 ± 7 | 101 ± 8.1 | 79.4 ± 11 | 94.3 ± 6.2 | 94.5 ± 10 | 98.6 ± 11 | 48.4 ± 2.2 | 101 ± 2.9 | 105 ± 6.9 | 94.7 ± 14 | 63.3 ± 3.9 | 103 ± 5.7 | 97.7 ± 19 | 96.2 ± 3.3 | 62.3 ± 7 | 83.6 ± 67 | 101 ± 13 | 115 ± 4.3 | 33.8 ± 12
CC[C@@]1(O)C(=O)OCc2c1cc1n(c2=O)Cc2cc3c(CN(C)C)c(O)ccc3nc2-1 [Topotecan] | 73.1 ± 10 | 49 ± 8.1 | 30.9 ± 2.8 | 12.1 ± 3.9 | 52.1 ± 9.8 | 20.9 ± 0.31 | 12.1 ± 1.6 | 8.742 ± 0.069 | 85.1 ± 59 | 26 ± 0.82 | 16.9 ± 1.2 | 8.21 ± 3.3 | 58.7 ± 5.9 | 34.7 ± 19 | 12.1 ± 2.9 | 6.08 ± 3.9 | 65.9 ± 3.4 | 37 ± 5.1 | 14 ± 5.7 | 11.8 ± 9.3
CC(=O)Nc1cccc(-n2c(=O)n(C3CC3)c(=O)c3c(Nc4ccc(I)cc4F)n(C)c(=O)c(C)c32)c1 [Trametinib] | 97.3 ± 1.3 | 65.2 ± 12 | 70.5 ± 16 | 82.8 ± 37 | 100 ± 5.3 | 78 ± 5.7 | 79.2 ± 5.8 | 71.3 ± 2.2 | 102 ± 27 | 66.9 ± 6 | 39.9 ± 6 | 20.1 ± 2.6 | 116 ± 3.5 | 72.4 ± 22 | 87 ± 36 | 58.7 ± 19 | 101 ± 9.6 | 51.9 ± 2.8 | 43.3 ± 13 | 40.3 ± 22
CN1CCN(CCCN2c3ccccc3Sc3ccc(C(F)(F)F)cc32)CC1 [Trifluoperazine] | 80.3 ± 46 | 90.7 ± 11 | 82.4 ± 4.9 | 78.4 ± 15 | 97.3 ± 7 | 86.1 ± 5.2 | 111 ± 8.7 | 80.4 ± 6.6 | 77.9 ± 18 | 117 ± 43 | 99.2 ± 25 | 77.8 ± 7.4 | 57.9 ± 35 | 79 ± 23 | 80.65 ± 0.72 | 50.3 ± 10 | 77.4 ± 46 | 81.3 ± 30 | 80.7 ± 20 | 37.4 ± 5.8
